Data as given in PubChem BioAssay (NCI).
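Compound exposure: 48 hours, 5 concentrations, 96-well plates. TGI: concentration producing complete growth inhibition.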

Columns and labels:
Assay in all cases: inhibition of tumour cell growth, NCI panel, 48 h
786-0 renal = tested on: 786-0 renal
BT-549 breast = tested on: BT-549 breast
COLO 205 colon = tested on: COLO 205 colon
K-562 leukemia = tested on: K-562 leukemia
LOX IMVI melanoma = tested on: LOX IMVI melanoma
MDA-MB-435 = tested on: MDA-MB-435
NCI/ADR-RES ovarian = tested on: NCI/ADR-RES ovarian
OVCAR-3 ovarian = tested on: OVCAR-3 ovarian
OVCAR-5 ovarian = tested on: OVCAR-5 ovarian
OVCAR-8 ovarian = tested on: OVCAR-8 ovarian
PC-3 prostate = tested on: PC-3 prostate
RPMI-8226 leukemia = tested on: RPMI-8226 leukemia
RXF 393 renal = tested on: RXF 393 renal
SF-268 CNS = tested on: SF-268 CNS
SF-295 CNS = tested on: SF-295 CNS
SK-MEL-28 melanoma = tested on: SK-MEL-28 melanoma
SK-MEL-5 melanoma = tested on: SK-MEL-5 melanoma
U251 CNS = tested on: U251 CNS
UACC-257 melanoma = tested on: UACC-257 melanoma
MALME-3M melanoma = tested on: MALME-3M melanoma

Row | SMILES | TGI (786-0 renal) | TGI (BT-549 breast) | TGI (COLO 205 colon) | TGI (K-562 leukemia) | TGI (LOX IMVI melanoma) | TGI (MDA-MB-435) | TGI (NCI/ADR-RES ovarian) | TGI (OVCAR-3 ovarian) | TGI (OVCAR-5 ovarian) | TGI (OVCAR-8 ovarian) | TGI (PC-3 prostate) | TGI (RPMI-8226 leukemia) | TGI (RXF 393 renal) | TGI (SF-268 CNS) | TGI (SF-295 CNS) | TGI (SK-MEL-28 melanoma) | TGI (SK-MEL-5 melanoma) | TGI (U251 CNS) | TGI (UACC-257 melanoma) | TGI (MALME-3M melanoma)
1 | O=[N+]([O-])C1=Cc2c(O)ccc(O)c2C2c3ccccc3NC12 (stereo not drawn) | 24.7 µM | 25.8 µM | 33.9 µM | > 100 µM | > 52.7 µM | 28.6 µM | 51 µM | 19.3 µM | 34.1 µM | > 42.6 µM | 19 µM | 63.6 µM | 26.4 µM | 36.6 µM | 31.5 µM | 43 µM | 27.6 µM | 29.4 µM | 29.3 µM | –
2 | C/C(=C\COP(=O)(O)CP(=O)(O)O)CC/C=C(\C)CNc1ccccc1 | > 100 µM | > 100 µM | > 100 µM | > 100 µM | > 100 µM | > 100 µM | > 100 µM | > 100 µM | > 100 µM | > 100 µM | > 100 µM | > 100 µM | > 100 µM | > 100 µM | > 100 µM | > 100 µM | > 100 µM | > 100 µM | > 100 µM | –
3 | FC(F)(F)c1ccc2c(c1)nc(Cc1ccc(Cl)cc1)n2CC1CCCN2CCCCC12 (stereo not drawn) | 20.7 µM | 23.7 µM | 16 µM | 19.4 µM | 7.85 µM | 24.4 µM | 20.8 µM | 15.2 µM | 25 µM | 23.4 µM | 20.9 µM | – | 22 µM | 18 µM | 22.3 µM | 6.38 µM | 15.2 µM | 20.5 µM | 8.41 µM | 3.8 µM
4 | Cc1c(S(=O)(=O)/N=C(\NO)Nc2ccc(Cl)cc2)sc2ccc(Cl)cc12 | 32.3 µM | 31.7 µM | 30.9 µM | > 100 µM | 32.2 µM | 33.7 µM | 37.9 µM | 25.8 µM | 33.3 µM | 32.2 µM | 31.1 µM | – | 47.1 µM | 35.6 µM | 41 µM | 32.9 µM | 27.4 µM | 31.5 µM | 33.3 µM | 33.8 µM
5 | C/C(=N\NC(N)=O)C(CN1CCOCC1)C(c1ccccc1)c1c(O)c2ccccc2oc1=O (stereo not drawn) | > 100 µM | > 100 µM | > 100 µM | > 100 µM | > 100 µM | > 100 µM | > 100 µM | > 100 µM | > 100 µM | > 100 µM | > 100 µM | > 100 µM | – | > 100 µM | – | > 100 µM | > 100 µM | > 100 µM | > 100 µM | > 100 µM
6 | O=[N+]([O-])c1cccc(-c2ccc([C@H]3CC(c4ccc(Cl)cc4)=NN3)o2)c1 | 28.5 µM | 74.9 µM | > 100 µM | 55 µM | – | 54.4 µM | 76.3 µM | 43.3 µM | > 100 µM | 27.4 µM | – | 45.6 µM | 35.2 µM | > 100 µM | 88.5 µM | – | 32.2 µM | – | 83.9 µM | 71.6 µM
7 | CN(C)CCC(C#N)(c1ccccc1)c1ccccc1 | > 100 µM | > 100 µM | > 100 µM | 22.6 µM | – | > 100 µM | > 100 µM | > 100 µM | > 100 µM | > 100 µM | > 100 µM | 80.5 µM | > 100 µM | > 100 µM | > 100 µM | 58.4 µM | 51.1 µM | > 100 µM | 59.2 µM | > 100 µM
8 | COc1ccc2nc3cc(Cl)ccc3c(NCCCN(C)CCCNc3ccc4ncn5c6ccccc6c(=O)c3c45)c2c1 | 8.7 µM | 4.59 µM | 3.66 µM | > 25 µM | – | 5.23 µM | > 14.1 µM | 6.79 µM | 6.47 µM | 8.52 µM | 5.34 µM | > 25 µM | 1.14 µM | 12.6 µM | 5.37 µM | 7.38 µM | 4.62 µM | 1.63 µM | 6.81 µM | 7.09 µM
9 | COC(=O)[C@@H](N1C(=O)c2ccccc2C1=O)C1(C)CC(Cl)=NO1 (stereo partly drawn) | > 100 µM | > 100 µM | > 100 µM | > 100 µM | – | > 100 µM | 68.2 µM | > 100 µM | > 100 µM | 37 µM | > 100 µM | > 100 µM | > 100 µM | 76.9 µM | 74.3 µM | > 100 µM | > 100 µM | 77.2 µM | > 100 µM | > 100 µM
10 | CSc1ccc(/C=C2\N=C(c3ccccc3)N(NC(=O)c3c(Cl)c(Cl)c(Cl)c(Cl)c3-c3nc4ccccc4[nH]3)C2=O)cc1 | > 100 µM | > 100 µM | 95.9 µM | 66.4 µM | > 100 µM | 19.7 µM | > 100 µM | > 100 µM | > 100 µM | > 100 µM | > 100 µM | – | – | > 100 µM | > 100 µM | > 100 µM | > 100 µM | – | > 100 µM | > 100 µM
11 | N#CC(C#N)=CNC(=S)Nc1ccc(S(=O)(=O)Nc2nccs2)cc1 | > 100 µM | > 100 µM | > 100 µM | – | > 100 µM | > 100 µM | > 100 µM | > 100 µM | > 100 µM | > 100 µM | – | – | > 100 µM | > 100 µM | > 100 µM | > 100 µM | > 100 µM | > 100 µM | > 100 µM | –
12 | CC(C)c1cc(C(C)C)c(S(=O)(=O)N/N=C2\CC3CCC2(C)C3(C)C)c(C(C)C)c1 (stereo not drawn) | > 100 µM | > 100 µM | 79.3 µM | > 100 µM | – | > 100 µM | > 100 µM | > 100 µM | > 100 µM | > 100 µM | > 100 µM | 21.2 µM | 58.5 µM | > 100 µM | 63.9 µM | > 100 µM | 30.5 µM | > 100 µM | 26.2 µM | > 100 µM
13 | O=C(c1ccccc1)N1N=C(C(F)(F)F)CC1(O)C(F)(F)F (stereo not drawn) | > 100 µM | > 100 µM | > 100 µM | > 100 µM | > 100 µM | > 100 µM | > 100 µM | > 100 µM | > 100 µM | > 100 µM | > 100 µM | > 100 µM | – | > 100 µM | > 100 µM | > 100 µM | – | > 100 µM | > 100 µM | > 100 µM
14 | O=[N+]([O-])c1ccc(-c2ccc([C@H]3CC(c4cc(F)c(Cl)cc4Cl)=NN3)o2)cc1 | > 100 µM | 90.9 µM | – | > 100 µM | > 100 µM | > 100 µM | 90.2 µM | > 100 µM | > 100 µM | > 100 µM | – | > 100 µM | > 100 µM | > 100 µM | > 100 µM | – | 32.2 µM | – | > 100 µM | > 100 µM
15 | C/C(=C/C(=O)N(C)c1ccccc1Cl)O[Si](C(C)C)(C(C)C)C(C)C | 33.1 µM | 56.6 µM | 32.6 µM | – | 33.2 µM | > 100 µM | 39.6 µM | 33.5 µM | 34.8 µM | 47 µM | – | 63.9 µM | 34.5 µM | 46.4 µM | 74.8 µM | > 100 µM | 30.8 µM | 38.7 µM | 66.4 µM | 51.5 µM
16 | CC(=O)OCCn1c(Cc2ccc(Cl)cc2)nn(C(C)=O)c1=O | > 100 µM | > 100 µM | > 100 µM | > 100 µM | > 100 µM | > 100 µM | > 100 µM | > 100 µM | > 100 µM | > 100 µM | > 100 µM | > 100 µM | – | > 100 µM | > 100 µM | > 100 µM | > 100 µM | > 100 µM | > 100 µM | > 100 µM
17 | COc1ccc2c(c1)SC1=Nc3sc4cc(OC)ccc4[n+]3CN12 | 82.7 µM | > 100 µM | 11.6 µM | > 100 µM | – | > 100 µM | > 100 µM | 21.5 µM | > 100 µM | > 100 µM | > 100 µM | 88.4 µM | – | 28.5 µM | > 100 µM | – | 15.6 µM | 63.6 µM | > 100 µM | 57 µM
18 | CCOc1cc(NC(C)=O)ccc1C(=O)NN1C(=O)/C(=C/c2ccc(Cl)cc2)N=C1c1ccccc1 | > 100 µM | > 100 µM | > 100 µM | > 100 µM | > 100 µM | > 100 µM | > 100 µM | > 100 µM | > 100 µM | > 100 µM | > 100 µM | > 100 µM | > 100 µM | – | > 100 µM | > 100 µM | 81.3 µM | > 100 µM | > 100 µM | –
19 | CC(=O)Nc1ccc2c3c(cc(O)c2c1)N(C(=O)CCCCCCC(=O)Nc1ccc2c4c(cc(O)c2c1)N(C(=O)OC(C)(C)C)CC4CCl)CC3CCl (stereo not drawn) | 5.55 µM | 0.979 µM | 0.284 µM | > 100 µM | > 33.4 µM | 0.305 µM | > 72 µM | 0.263 µM | 0.663 µM | > 32.9 µM | – | – | 0.0392 µM | 1.67 µM | 0.957 µM | – | 0.0783 µM | 11 µM | 0.439 µM | –
20 | c1ccc2sc(C3(N4CCCCCC4)CCCCC3)cc2c1 | 42.9 µM | 61.2 µM | 30 µM | 33.1 µM | 43.4 µM | 71.1 µM | 55.2 µM | 38.6 µM | 37.4 µM | > 100 µM | – | – | 33.4 µM | 52.5 µM | 59.1 µM | 55 µM | 33.3 µM | 35 µM | 50 µM | –
